Results published in PMC5671890 (Journal of molecular medicine (Berlin, Germany), 2017).
≈ marks a conversion by molar mass, not a printed value. Counter-ions that a name gives are not always drawn. Positions of bridges follow the written chain, without caps; N, C: chain ends. Non-standard residues stand in square brackets, D forms with d. Residues, ends and D or L forms follow the SMILES beside them. *: point of attachment. X1 = CC[C@H](C)CCCCC(=O)*; Dab = NCC[C@H](N)C(=O)O

How the values were obtained:
Type in all cases: cell-based
Conditions in all cases: cation-adjusted Mueller Hinton broth, serial 2-fold dilutions, repeated 3 times
[1] = system: Pseudomonas aeruginosa PAO1 Wt
[2] = system: Pseudomonas aeruginosa PAO1 vacJ− mutant
[3] = system: Pseudomonas aeruginosa PAO1 vacJ−:vacJ complemented strain

Row | Compound | MIC [1] [µg/mL] | MIC [2] [µg/mL] | MIC [3] [µg/mL]
1 | CC[C@H](C)CCCCC(=O)N[C@@H](CCN)C(=O)N[C@H](C(=O)N[C@@H](CCN)C(=O)N[C@H]1CCNC(=O)[C@H]([C@@H](C)O)NC(=O)[C@H](CCN)NC(=O)[C@H](CCN)NC(=O)[C@H](CC(C)C)NC(=O)[C@@H](CC(C)C)NC(=O)[C@H](CCN)NC1=O)[C@@H](C)O [Colistin, colistin sulfate] (X1-[Dab]T[Dab][Dab][Dab][dL]L[Dab][Dab]T; lactam 4-C (inferred); N-terminus assumed) | 1 | 0.5 | 1
2 | CC[C@H](C)CCCCC(=O)N[C@@H](CCN)C(=O)N[C@H](C(=O)N[C@@H](CCN)C(=O)N[C@H]1CCNC(=O)[C@H]([C@@H](C)O)NC(=O)[C@H](CCN)NC(=O)[C@H](CCN)NC(=O)[C@H](CC(C)C)NC(=O)[C@@H](Cc2ccccc2)NC(=O)[C@H](CCN)NC1=O)[C@@H](C)O [Polymyxin B] (X1-[Dab]T[Dab][Dab][Dab][dF]L[Dab][Dab]T; lactam 4-C (inferred); N-terminus assumed) | 0.5 (≈ 0.415 µM) | 0.25 (≈ 0.208 µM) | 0.5 (≈ 0.415 µM)
